# According to patent US6022869A, “Aminoheterocyclic compounds with antithrombotic/anticoagulant effect” (Zeneca Limited, priority 1996, dated 2000):
# B1: antistasin: protein, specific Factor Xa inhibitor which possesses antithrombotic properties (protein, UniProt P15358 18-136, looked up)
# Antistasin: QGPFGPGCEEAGCPEGSACNIITDRCTCSGVRCRMHCPHGFQRSRYGCEFCKCRLEPMKATCDISECPEGMMCSRLTNKCDCKIDINCRKTCPNGLKRDKLGCEYCECRPKRKLIPRLS
# What was measured:
# [1] = system: human, rat or rabbit blood plasma (prothrombin time); experiment: Measurement of Anticoagulant Activity, prothrombin time (PT) test in vitro (test c); settings: plasma incubated 10 minutes at 37° C., species not given
# Protocol: c) Measurement of Anticoagulant Activity
# An in vitro assay whereby human, rat or rabbit venous blood was collected and added directly to a sodium citrate solution (3.2 g/100 ml, 9 parts blood to 1 part citrate solution). Blood plasma was prepared by centrifugation (1000 g, 15 minutes) and stored at 2-4° C. Conventional prothrombin time (PT) tests were carried out in the presence of various concentrations of a test compound and the concentration of test compound required to double the clotting time, hereinafter referred to as CT2, was determined. In the PT test, the test compound and blood plasma were incubated at 37° C. for 10 minutes. Tissue thromboplastin with calcium (Sigma Limited, Poole, England) was added. Fibrin formation and the time required for a clot to form were determined.
# human thrombin = biological target: T1, human thrombin (Homo sapiens, UniProt P00734); experiment: Measurement of Thrombin Inhibition (test b, chromogenic substrate S-2238); type: biochemical; settings: human thrombin 0.005 Units/ml, S-2238 7 μM
# T1 construct: cleaves prothrombin to generate thrombin
# Protocol: b) Measurement of Thrombin Inhibition
# The procedure of method a) was repeated except that human thrombin (0.005 Units/ml) and the chromogenic substrate S-2238 (KabiVitum AB, 7 μM) were employed.
# human Factor Xa = human Factor Xa (Homo sapiens, UniProt P00742); experiment: Measurement of Factor Xa Inhibition (test a, chromogenic substrate S-2765); type: biochemical; settings: pH 7.5, 37° C., human Factor Xa 0.001 Units/ml
# Protocol: a) Measurement of Factor Xa Inhibition
# An in vitro assay system was carried out based on the method of Kettner et al., J. Biol. Chem., 1990, 265, 18289-18297, whereby various concentrations of a test compound were dissolved in a pH7.5 buffer containing 0.5% of a polyethylene glycol (PEG 6000) and incubated at 37° C. with human Factor Xa (0.001 Units/ml, 0.3 ml) for 15 minutes. The chromogenic substrate S-2765 (KabiVitum AB, 20 μM) was added and the mixture was incubated at 37° C. for 20 minutes whilst the absorbance at 405 nm was measured. The maximum reaction velocity (Vmax) was determined and compared with that of a control sample containing no test compound. Inhibitor potency was expressed as an IC50 value.
# Factor Xa = settings: known from the literature; cited from earlier work
# [2] = system: various animal models of thrombotic disease; settings: cited from earlier work
# Sequence of human Factor Xa (P00742 235-488 limits assumed): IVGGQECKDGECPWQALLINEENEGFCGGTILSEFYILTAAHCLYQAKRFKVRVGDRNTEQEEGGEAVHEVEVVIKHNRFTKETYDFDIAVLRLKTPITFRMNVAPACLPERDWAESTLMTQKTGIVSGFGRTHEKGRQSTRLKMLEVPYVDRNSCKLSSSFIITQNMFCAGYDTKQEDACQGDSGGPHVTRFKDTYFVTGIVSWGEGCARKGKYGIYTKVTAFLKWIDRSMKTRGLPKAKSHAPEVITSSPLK
# Sequence of human Factor Xa (P00742 41-179 partner limits assumed): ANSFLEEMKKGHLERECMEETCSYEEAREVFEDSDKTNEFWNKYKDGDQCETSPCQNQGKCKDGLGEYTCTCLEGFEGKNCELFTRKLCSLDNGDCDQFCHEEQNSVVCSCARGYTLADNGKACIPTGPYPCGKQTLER
Molecule,"CT2 (PT), concentration of test compound required to double the clotting time [1]",IC50 (human thrombin),IC50 (human Factor Xa),"Factor Xa inhibition (specificity, in words) (Factor Xa)",antithrombotic properties (in words) [2]
"CCSCCNC(=O)C1CN(S(=O)(=O)c2ccc3cc(Br)ccc3c2)CCN1C(=O)C1CCN(c2ccncc2)CC1 (stereo not shown) [Example 1, 4-(6-Bromonaphth-2-ylsulphonyl)-2-[N-(2-(ethylthio)ethyl)carbamoyl]-[1-1-(4-pyridyl)piperidin-4-ylcarbonyl]piperazine]",1 µM,> 5000 nM,4 nM,–,–
"tick anticoagulant protein (TAP): protein, specific Factor Xa inhibitor which possesses antithrombotic properties (YNRLCIKPRDWIDECDSNEGGERAYFRNGKGGCDSFWICPEDHTGADYYSSYRDCFNACI; UniProt P17726 1-60, looked up)",–,–,–,specific Factor Xa inhibitors,possess antithrombotic properties
B1,–,–,–,specific Factor Xa inhibitors,possess antithrombotic properties
